Reference: BindingDB's records for doi:10.1016/j.bmcl.2005.07.040 (Universit&#233, 2005)

Target: Sigma non-opioid intracellular receptor 1 (Cavia porcellus)
Test: Inhibitory concentration against opioid receptor sigma 1 of guinea pig cerebral cortex using [3H](+)-pentazocine upon incubation for 150 minutes at 22 degree C

| Structure (SMILES) | IC50 |
| --- | --- |
| O=c1n(CCN2CCCCC2)c(O)c2n1Cc1ccccc1C2 | 6.6 nM |
| c1ccc2c(c1)C[C@H]1CN(CCN3CCCCC3)CN1C2 [(S)-2-(2-Piperidin-1-yl-ethyl)-1,2,3,5,10,10a-hexahydro-imidazo[1,5-b]isoquinoline] | 77 nM |
| O=C1N(CCN2CCCCC2)C[C@@H]2Cc3ccccc3CN12 [(S)-2-(2-Piperidin-1-yl-ethyl)-1,5,10,10a-tetrahydro-2H-imidazo[1,5-b]isoquinolin-3-one] | 54 nM |
| Oc1c2n(c(=S)n1CCN1CCCCC1)Cc1ccccc1C2 [(S)-2-(2-Piperidin-1-yl-ethyl)-3-thioxo-2,3,10,10a-tetrahydro-5H-imidazo[1,5-b]isoquinolin-1-one] | 0.9 nM |
| O=c1n(CCN2CCCCC2)c(O)c2n1CCCC2 [(S)-2-(2-Piperidin-1-yl-ethyl)-tetrahydro-imidazo[1,5-a]pyridine-1,3-dione] | > 1000 nM |
